Several values for one entry are separate records, joined by “and”; a condition that tells them apart may be missing. Equal values may be shown once.
Target: rLHR (Rattus norvegicus, UniProt P16235)
Assay: PCRE controlled luciferase expression in HEK293T transiently transfected with rLHR
Format: cell-based
Set-up: Full-length cDNAs encoding the LHRs of rat (r) and bovine (b) origin; expressed in transfected cells; host or cells: HEK293T, transient transfection with pLEN-rLHR
Conditions: 500 ng/ml bLH, 6 h post-induction, pLEN-rLHR + pCRE-Luc
Experimental: HEK293T cells were transiently transfected for rLHR and PCRE controlled luciferase expression. 24 hours after transfection the cells were transferred to a 96-well plate, cultured for 12 h and induced by the addition of 500 ng/ml bLH. The luciferase expression was measured 6 h post-induction. […] Luciferase expression was expressed as relative light units (RLU).
Functional expression of LHRs on the cell surface results in the stimulation of PKA and an increase of intracellular cAMP in response to bLH. It was evaluated whether the activated LHR-signaling may induce a PKA-responsive promoter. […] 24 hours post-transfection the cells were induced by bLH and the SEAP expression was determined over time. […] In comparing rLHR- and bLHR-expressing cells a 3-fold increase in maximal SEAP expression in response to bLH of the rLHR over the bLHR was detected. […]
The intracellular cAMP production of cells was quantified using the cAMP Fluorescence Polarization (FP) Biotrak Immunoassay System (GE Healthcare Bio-Sciences GmbH, Otelfingen, Switzerland, Cat No. RPN3595) according to the manufacturer's protocol. The expression of firefly luciferase was determined with the Tropix Luciferase Assay Kit (Applied Biosystems, Bedford, USA, Cat No. BC100L). […] Enhanced YFP-expression was detected by fluorescence microscopy (Leica Microsystems, Wetzlar, Germany)

Chain of rLHR (P16235 27-700): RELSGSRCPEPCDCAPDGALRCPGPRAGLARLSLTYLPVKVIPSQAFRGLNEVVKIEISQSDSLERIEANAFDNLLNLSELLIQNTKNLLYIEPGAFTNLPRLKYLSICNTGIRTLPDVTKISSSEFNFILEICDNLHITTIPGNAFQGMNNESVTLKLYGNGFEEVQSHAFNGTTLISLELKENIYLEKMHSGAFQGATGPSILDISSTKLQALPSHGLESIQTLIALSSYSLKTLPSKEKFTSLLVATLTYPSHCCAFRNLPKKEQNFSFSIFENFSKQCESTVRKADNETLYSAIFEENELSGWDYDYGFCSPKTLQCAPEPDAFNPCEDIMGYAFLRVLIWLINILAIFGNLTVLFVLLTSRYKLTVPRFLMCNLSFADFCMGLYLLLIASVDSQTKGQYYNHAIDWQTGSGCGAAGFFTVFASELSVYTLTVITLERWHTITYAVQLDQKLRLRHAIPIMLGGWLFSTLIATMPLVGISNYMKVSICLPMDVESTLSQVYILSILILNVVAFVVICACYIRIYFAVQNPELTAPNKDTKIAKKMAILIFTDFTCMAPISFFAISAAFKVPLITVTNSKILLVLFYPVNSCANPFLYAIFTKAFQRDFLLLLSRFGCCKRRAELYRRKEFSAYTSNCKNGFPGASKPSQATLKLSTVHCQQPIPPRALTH

- increase in luciferase expression: 10 fold and 9.9±0.1 fold
Substance: bovine luteinizing hormone [bLH]
